Reference: ChEMBL document CHEMBL4387706, “Discovery of Novel Spiroindoline Derivatives as Selective Tankyrase Inhibitors” (J Med Chem, 2019)
≈ marks a conversion by molar mass, not a printed value. Calls of active or inactive are those of the source. The rule behind the calls is not given here.

Key:
[1] = molecular target: T1, Poly [ADP-ribose] polymerase tankyrase-2 (Homo sapiens, UniProt Q9H2K2)
T1 sequence (Q9H2K2 whole entry): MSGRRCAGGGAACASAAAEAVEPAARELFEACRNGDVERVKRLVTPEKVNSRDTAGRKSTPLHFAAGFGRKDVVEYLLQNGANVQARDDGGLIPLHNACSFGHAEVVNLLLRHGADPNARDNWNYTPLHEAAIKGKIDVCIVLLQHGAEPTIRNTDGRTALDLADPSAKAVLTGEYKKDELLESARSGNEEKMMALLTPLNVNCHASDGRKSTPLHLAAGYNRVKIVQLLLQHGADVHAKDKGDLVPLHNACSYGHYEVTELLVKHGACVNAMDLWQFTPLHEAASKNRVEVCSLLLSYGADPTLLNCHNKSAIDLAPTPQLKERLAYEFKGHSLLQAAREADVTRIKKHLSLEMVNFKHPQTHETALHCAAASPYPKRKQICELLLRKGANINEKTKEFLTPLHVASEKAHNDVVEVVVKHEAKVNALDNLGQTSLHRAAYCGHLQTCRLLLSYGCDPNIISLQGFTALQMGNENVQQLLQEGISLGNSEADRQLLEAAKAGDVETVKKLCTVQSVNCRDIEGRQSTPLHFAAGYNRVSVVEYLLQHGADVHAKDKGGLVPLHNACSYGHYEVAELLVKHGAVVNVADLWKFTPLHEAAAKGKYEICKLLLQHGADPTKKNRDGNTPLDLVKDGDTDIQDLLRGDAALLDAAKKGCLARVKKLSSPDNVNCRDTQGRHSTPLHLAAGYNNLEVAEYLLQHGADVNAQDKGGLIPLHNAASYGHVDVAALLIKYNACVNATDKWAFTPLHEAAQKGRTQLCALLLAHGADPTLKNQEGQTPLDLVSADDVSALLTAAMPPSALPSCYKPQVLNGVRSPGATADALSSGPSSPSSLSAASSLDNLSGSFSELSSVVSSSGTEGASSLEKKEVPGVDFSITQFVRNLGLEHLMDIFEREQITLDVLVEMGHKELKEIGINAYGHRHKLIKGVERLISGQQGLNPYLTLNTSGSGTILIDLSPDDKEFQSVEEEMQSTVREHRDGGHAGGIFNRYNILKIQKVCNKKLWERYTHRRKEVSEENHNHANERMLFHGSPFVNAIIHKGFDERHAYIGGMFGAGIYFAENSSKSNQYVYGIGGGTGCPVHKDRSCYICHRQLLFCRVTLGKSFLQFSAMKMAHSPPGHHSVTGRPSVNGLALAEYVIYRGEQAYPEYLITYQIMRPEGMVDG
Description: Inhibition of recombinant human N-terminal TEV cleavage site-fused/FLAG-poly his-tagged TNKS2 SAM-PARP domain (613 to 1166 residues) expressed in Escherichia coli assessed as reduction in auto-PARylation preincubated for 10 mins followed by biotinylated-NAD+ addition and measured after 45 mins by ELISA

[2] = molecular target: T2, Poly [ADP-ribose] polymerase tankyrase-1 (Homo sapiens, UniProt O95271)
T2 sequence (O95271 whole entry): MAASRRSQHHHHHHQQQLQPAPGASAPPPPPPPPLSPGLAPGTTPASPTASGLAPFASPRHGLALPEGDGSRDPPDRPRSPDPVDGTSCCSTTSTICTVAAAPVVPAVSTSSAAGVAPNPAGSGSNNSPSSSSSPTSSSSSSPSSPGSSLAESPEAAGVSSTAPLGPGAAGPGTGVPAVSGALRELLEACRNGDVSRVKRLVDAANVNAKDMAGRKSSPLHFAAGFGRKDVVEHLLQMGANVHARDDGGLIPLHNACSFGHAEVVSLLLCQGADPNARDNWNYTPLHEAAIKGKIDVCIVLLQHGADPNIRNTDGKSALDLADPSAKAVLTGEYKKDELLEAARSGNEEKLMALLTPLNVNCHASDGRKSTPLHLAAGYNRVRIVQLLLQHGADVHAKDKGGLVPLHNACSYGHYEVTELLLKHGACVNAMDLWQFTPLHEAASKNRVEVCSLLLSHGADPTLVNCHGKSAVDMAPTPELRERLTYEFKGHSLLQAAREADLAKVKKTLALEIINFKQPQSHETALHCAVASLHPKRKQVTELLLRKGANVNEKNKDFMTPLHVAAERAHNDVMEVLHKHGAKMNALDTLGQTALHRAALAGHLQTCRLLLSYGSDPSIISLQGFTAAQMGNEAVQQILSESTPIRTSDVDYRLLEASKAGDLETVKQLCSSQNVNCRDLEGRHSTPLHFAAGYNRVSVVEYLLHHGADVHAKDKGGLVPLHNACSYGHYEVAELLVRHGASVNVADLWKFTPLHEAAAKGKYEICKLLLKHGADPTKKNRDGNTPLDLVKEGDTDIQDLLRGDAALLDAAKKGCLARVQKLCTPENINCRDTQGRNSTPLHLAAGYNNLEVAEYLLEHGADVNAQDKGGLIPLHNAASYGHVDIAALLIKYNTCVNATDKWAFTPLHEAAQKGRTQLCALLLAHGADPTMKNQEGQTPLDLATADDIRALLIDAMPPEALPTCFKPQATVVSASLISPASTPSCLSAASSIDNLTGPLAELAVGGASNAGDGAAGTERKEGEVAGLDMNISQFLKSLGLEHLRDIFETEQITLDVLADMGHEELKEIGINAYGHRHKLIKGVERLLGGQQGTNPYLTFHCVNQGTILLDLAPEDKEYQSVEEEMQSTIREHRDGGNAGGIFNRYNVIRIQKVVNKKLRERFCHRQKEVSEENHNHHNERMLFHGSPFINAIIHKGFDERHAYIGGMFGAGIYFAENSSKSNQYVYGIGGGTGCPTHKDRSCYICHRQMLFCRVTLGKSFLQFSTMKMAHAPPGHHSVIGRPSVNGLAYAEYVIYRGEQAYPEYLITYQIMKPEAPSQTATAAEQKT
Description: Inhibition of recombinant human N-terminal TEV cleavage site-fused/FLAG-poly his-tagged TNKS SAM-PARP domain (1024 to 1327 residues) expressed in Escherichia coli assessed as reduction in auto-PARylation preincubated for 10 mins followed by biotinylated-NAD+ addition and measured after 45 mins by ELISA

[3] = molecular target: Poly [ADP-ribose] polymerase 1 (Homo sapiens, UniProt P09874)
Description: Inhibition of recombinant human PARP1 expressed in Escherichia coli assessed as reduction in auto-PARylation using histone as substrate measured after 45 mins in presence of biotinylated-NAD+ by ELISA

[4] = molecular target: Tankyrase 1/2 (Homo sapiens) (UniProt Q9H2K2+O95271); experiment: Inhibition of TNKS/TNKS2 in human COLO320DM cells assessed as upregulation of AXIN2 expression at 0.1 uM measured after 16 hrs by Western blot analysis relative to G007-LK; assay type: cell-based
COLO 320DM [5] = experiment: Antiproliferative activity against human COLO320DM cells assessed inhibition of cell growth measured after 5 days by MTT assay; assay type: functional; details: 120 h
COLO 320DM [6] = experiment: cells; details: Homo sapiens, 96 h
Description: Antiproliferative activity against human COLO320DM cells assessed as inhibition of cell growth measured after 4 days by CellTiter-Glo assay

Tankyrase 1/2 = molecular target: T3, Tankyrase 1/2 (Homo sapiens, UniProt Q9H2K2+O95271)
T3 sequence (Q9H2K2 whole entry): T1 sequence (Q9H2K2 whole entry)
T3 sequence (O95271 whole entry): T2 sequence (O95271 whole entry)
Description: Inhibition of TNKS/TNKS2 (unknown origin) expressed in human DLD1 cells assessed as reduction in Wnt-signaling measured after 24 hrs by TCF-luciferase reporter gene assay

RKO [7] = experiment: Antiproliferative activity against human RKO cells assessed inhibition of cell growth measured after 5 days by MTT assay; assay type: functional; details: 120 h
physchem = details: phosphate buffer, pH 7.4
[8] = Permeability of the compound by PAMPA; assay type: ADME; details: read-out: permeability
[9] = Protein binding in human serum assessed as unbound fraction at 1 uM measured after 24 hrs by LC-MS/MS analysis; assay type: ADME, cell-free
in vitro [10] = details: human, liver microsomes
Description: Stability in human liver microsomes assessed as parent compound remaining at 1 uM measured after 30 mins in presence of NADPH by LC-MS/MS analysis

in vitro [11] = details: mouse, liver microsomes
Description: Stability in mouse liver microsomes assessed as parent compound remaining at 1 uM measured after 30 mins in presence of NADPH by LC-MS/MS analysis

[12] = Protein binding in mouse serum assessed as unbound fraction at 1 uM measured after 24 hrs by LC-MS/MS analysis; assay type: ADME, cell-free
RKO [13] = experiment: Antiproliferative activity against human RKO cells assessed reduction in cell viability at 0.3 uM measured after 5 days by MTT assay; assay type: functional, cell-based
[14] = AUC (infinity) in ICR mouse at 50 mg/kg, ip; assay type: ADME, organism-based; parameters: dose 50 mg/kg, route intraperitoneal, time infinity; details: in vivo
[15] = Half life in ICR mouse at 50 mg/kg, ip; assay type: ADME, organism-based; details: in vivo
[16] = Cmax in ICR mouse at 50 mg/kg, ip; assay type: ADME, organism-based; parameters: dose 50 mg/kg, route intraperitoneal; details: in vivo

Poly [ADP-ribose] polymerase 1, sequence (P09874 whole entry): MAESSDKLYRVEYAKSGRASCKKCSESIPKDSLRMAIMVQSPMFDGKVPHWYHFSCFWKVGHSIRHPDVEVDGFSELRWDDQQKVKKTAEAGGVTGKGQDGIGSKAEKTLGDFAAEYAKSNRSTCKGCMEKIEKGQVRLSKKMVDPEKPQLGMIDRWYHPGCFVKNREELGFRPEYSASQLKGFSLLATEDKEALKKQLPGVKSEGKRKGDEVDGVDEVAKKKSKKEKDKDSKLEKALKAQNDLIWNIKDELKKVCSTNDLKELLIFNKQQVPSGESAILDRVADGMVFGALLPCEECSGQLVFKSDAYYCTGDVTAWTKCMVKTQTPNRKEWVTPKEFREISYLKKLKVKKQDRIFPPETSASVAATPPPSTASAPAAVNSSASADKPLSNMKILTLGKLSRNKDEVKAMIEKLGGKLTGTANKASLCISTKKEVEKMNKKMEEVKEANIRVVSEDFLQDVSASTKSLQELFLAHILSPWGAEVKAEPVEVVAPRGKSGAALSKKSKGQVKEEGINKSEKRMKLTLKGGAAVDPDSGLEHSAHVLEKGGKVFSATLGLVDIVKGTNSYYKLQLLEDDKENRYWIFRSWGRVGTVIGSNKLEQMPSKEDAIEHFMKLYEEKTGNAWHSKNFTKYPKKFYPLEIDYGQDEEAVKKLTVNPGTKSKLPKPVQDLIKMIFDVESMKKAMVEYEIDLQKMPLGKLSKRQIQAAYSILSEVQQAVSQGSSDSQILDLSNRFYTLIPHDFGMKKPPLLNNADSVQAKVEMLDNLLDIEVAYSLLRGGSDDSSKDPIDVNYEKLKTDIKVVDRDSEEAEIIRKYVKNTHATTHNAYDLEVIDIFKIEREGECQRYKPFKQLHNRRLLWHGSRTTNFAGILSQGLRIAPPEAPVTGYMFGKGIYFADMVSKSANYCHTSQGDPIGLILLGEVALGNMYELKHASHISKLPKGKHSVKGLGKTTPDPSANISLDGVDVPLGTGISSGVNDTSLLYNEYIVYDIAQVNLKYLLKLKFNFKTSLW

| SMILES | IC50 [1] [nM] | IC50 [2] [nM] | IC50 [3] [nM] | fold change (FC) [4] | GI50 (COLO 320DM [5]) [nM] | GI50 (COLO 320DM [6]) [nM] | IC50 (Tankyrase 1/2) [nM] | GI50 (RKO [7]) [nM] | solubility at 1 h, 200 µM (physchem) [µg/mL] | Papp [8] [×10⁻⁶ cm/s] | Fu ([9]; 24 h, 1 µM) [%] | remaining at 0.5 h, 1 µM (in vitro [10]) [%] | remaining at 0.5 h, 1 µM (in vitro [11]) [%] | fraction unbound at 24 h, 1 µM [12] | fraction unbound at 24 h, 1 µM [9] | Activity (RKO [13]) | AUC(0-inf) [14] [µM·h] | half-life [15] [h] | Cmax [16] [µM] |
| --- | --- | --- | --- | --- | --- | --- | --- | --- | --- | --- | --- | --- | --- | --- | --- | --- | --- | --- | --- |
| O=C1N(CCO)c2ccccc2C12CCN(c1nc3c(c(=O)[nH]1)CCCC3)CC2 | 26 | 19 | > 20000 | 0.98 | 2670 | 12700 | 918 | 3400 | 78.7 (≈ 200 µM) | 2.9 | – | – | – | – | – | – | – | – | – |
| O=c1[nH]c(N2CCC3(CC2)CN(CCO)c2ccccc23)nc2c1CCCC2 | 26.9 | 49.3 | > 20000 | 0.98 | 1770 | 3900 | 362 | 220 | > 76.1 | 17.4 | – | – | – | – | – | – | – | – | – |
| Oc1nc(-c2ccc(C(F)(F)F)cc2)nc2c1CSCC2 | – | – | – | – | – | 17000 | – | – | 0.4 (≈ 1.28 µM) | 3.24 | 0.6 | 78.4 | 0 | 0.086 | – | – | – | – | – |
| O=C1N(CCO)c2cc(Cl)cc(Cl)c2C12CCN(c1nc3c(c(=O)[nH]1)CCCC3)CC2 | 9.5 | 9 | > 20000 | 8.03 | 450 | 2600 | 19.8 | 2610 | 55.9 (≈ 121 µM) | 43 | – | – | – | – | – | – | – | – | – |
| O=c1[nH]c(N2CCC3(CC2)CN(CCO)c2cc(Cl)cc(Cl)c23)nc2c1CCCC2 | 16.4 | 18.2 | > 20000 | 4.03 | 4650 | 2900 | 119 | 40 | 5.2 (≈ 11.6 µM) | – | – | – | – | – | – | – | – | – | – |
| O=C1Oc2ccccc2C12CCN(c1nc3c(c(=O)[nH]1)CCCC3)CC2 | 18.3 | 30.2 | > 20000 | – | – | > 50000 | > 10000 | – | 1.17 (≈ 3.33 µM) | – | – | 28.1 | 0.1 | – | – | – | – | – | – |
| O=c1[nH]c(N2CCC3(CC2)CN(CCO)c2cccc(Cl)c23)nc2c1CCCC2 | 17 | 16.6 | > 20000 | 4.86 | 300 | 1500 | 52.9 | > 10000 | 2.5 (≈ 6.03 µM) | – | – | 6.1 | 1.1 | 0.01 | 0.009 | Active | 667 | 4.8 | 75.6 |
| COc1ccccc1C1CCN(c2nc3c(c(=O)[nH]2)CCCC3)CC1 | 67.6 | 65.4 | > 20000 | – | – | 4600 | 531 | – | 1 (≈ 2.95 µM) | – | – | 62.1 | 0 | – | – | – | – | – | – |
| O=C1N(CCO)c2cccc(F)c2C12CCN(c1nc3c(c(=O)[nH]1)CCCC3)CC2 | 8.2 | 6.8 | > 20000 | 4.1 | 190 | 1800 | 36.5 | 2030 | 80.1 (≈ 194 µM) | 3.6 | – | – | – | – | – | – | – | – | – |
| O=c1[nH]c(N2CCC3(CC2)CN(CCO)c2cccc(F)c23)nc2c1CCCC2 | 11.8 | 9.2 | > 20000 | 3.63 | 260 | 1400 | 83.9 | 90 | 74.6 (≈ 187 µM) | 7.6 | – | – | – | – | – | – | – | – | – |
